The source of these data is ChEMBL document CHEMBL5634090, “Design of phenothiazine-based cationic amphiphilic derivatives incorporating arginine residues: Potential membrane-active broad-spectrum antimicrobials combating pathogenic bacteria in vitro and in vivo” (Eur J Med Chem, 2023).

Broadly, the MIC is the least concentration at which growth counts as inhibited. Low values mean a more susceptible organism, high ones a less susceptible organism.

Assay type in all cases: functional
Experiment [1] deals with Pseudomonas aeruginosa. The experiment can be described thus: Antibacterial activity against Pseudomonas aeruginosa ATCC 9027 infected in cyclophosphamide immunosuppressed keratitis mouse model assessed as log reduction in number of viable bacterial colonies at 0.3 % administrated tropically.
Experiment [2] concerns Klebsiella pneumoniae. Kind of experiment: Antibacterial activity against Klebsiella pneumoniae ATCC 14581 by microbroth dilution assay. (In broth dilution the organism is exposed to a series of concentrations in liquid medium.)
Experiment [3] deals with Klebsiella pneumoniae. The experiment can be described thus: Antibacterial activity against Klebsiella pneumoniae ATCC 10031 by microbroth dilution assay.
Experiment [4] deals with Pseudomonas aeruginosa. Kind of experiment: Antibacterial activity against Pseudomonas aeruginosa ATCC 9027 by microbroth dilution assay.
In experiment [5] the test system is Klebsiella pneumoniae. Kind of experiment: Induction of resistance development in Klebsiella pneumoniae ATCC 10031 assessed as fold increase in MIC treated over 20 serial passages by microdilution assay.
The subject of experiment [6] is Klebsiella pneumoniae. Kind of experiment: Antibacterial activity against Klebsiella pneumoniae ATCC 10031 assessed as log reduction in bacterial load at 8 times MIC measured after 2 hrs by time kill assay.
Experiment [7] has as its system Staphylococcus aureus. The experiment can be described thus: Antibacterial activity against Staphylococcus aureus ATCC 29213 assessed as log reduction in bacterial load at 8 times MIC measured after 2 hrs by time kill assay.
The test system of experiment [8] is Staphylococcus aureus. Kind of experiment: Antibacterial activity against Staphylococcus aureus ATCC 29213 by microbroth dilution assay.
In experiment [9] the test system is Staphylococcus aureus. Kind of experiment: Antibacterial activity against methicillin resistant Staphylococcus aureus NCTC 10442 by microbroth dilution assay.
Experiment [10] deals with Staphylococcus aureus. Kind of experiment: Antibacterial activity against Staphylococcus aureus ATCC 29213 infected in cyclophosphamide immunosuppressed keratitis mouse model assessed as log reduction in number of viable bacterial colonies at 50 mg/ml administrated tropically.
The test system of experiment [11] is Staphylococcus aureus. Kind of experiment: Antibacterial activity against methicillin resistant Staphylococcus aureus N315 by microbroth dilution assay.
For experiment [12], the system named is Staphylococcus aureus. The experiment can be described thus: Antibacterial activity against Staphylococcus aureus ATCC 29213 assessed as log reduction in bacterial load at 4 times MIC measured after 2 hrs by time kill assay.
In experiment [13] the test system is Staphylococcus aureus. Kind of experiment: Antibiofilm activity against 24 hrs preformed biofilm in Staphylococcus aureus ATCC 29213 assessed as residual biomass at 4 times MIC relative to control.
Experiment [14] relates to Klebsiella pneumoniae. The experiment can be described thus: Antibiofilm activity against 24 hrs preformed biofilm in Klebsiella pneumoniae ATCC 10031 assessed as residual biomass at 4 times MIC relative to control.
Experiment [15] deals with Klebsiella pneumoniae. Kind of experiment: Inhibition of biofilm formation in Klebsiella pneumoniae ATCC 10031 at MIC by crystal violet staining assay relative to control.
The subject of experiment [16] is Staphylococcus aureus. Kind of experiment: Inhibition of biofilm formation in Staphylococcus aureus ATCC 29213 at MIC by crystal violet staining assay relative to control.

Structures are written as SMILES. Values after ≈ are worked out from the molar mass of the structure shown. Some results are limits rather than exact numbers.

Consider `NC[C@H]1O[C@H](O[C@H]2[C@H](O)[C@@H](O[C@H]3O[C@H](CO)[C@@H](O)[C@H](N)[C@H]3O)[C@H](N)C[C@@H]2N)[C@H](N)C[C@@H]1O` [TOBRAMYCIN], for which the “log(activity)” value in the experiment with Pseudomonas aeruginosa [1] was 4.71.

Regarding `O=C(O)c1cn(C2CC2)c2cc(N3CCNCC3)c(F)cc2c1=O` [CIPROFLOXACIN], the MIC in the experiment on Klebsiella pneumoniae [2], against Klebsiella pneumoniae [3] and with Pseudomonas aeruginosa [4] was 0.195 µg/mL (≈ 0.589 µM) each time. For the same compound, the fold change (FC) with Klebsiella pneumoniae [5] was determined as 128. Besides, the “log(activity)” value in the experiment with Klebsiella pneumoniae [6] was 2.27.

`CN[C@H](CC(C)C)C(=O)N[C@H]1C(=O)N[C@@H](CC(N)=O)C(=O)N[C@H]2C(=O)N[C@H]3C(=O)N[C@H](C(=O)N[C@H](C(=O)O)c4cc(O)cc(O)c4-c4cc3ccc4O)[C@H](O)c3ccc(c(Cl)c3)Oc3cc2cc(c3O[C@@H]2O[C@H](CO)[C@@H](O)[C@H](O)[C@H]2O[C@H]2C[C@](C)(N)[C@H](O)[C@H](C)O2)Oc2ccc(cc2Cl)[C@H]1O` [VANCOMYCIN]: the “log(activity)” value is 0.15 with Staphylococcus aureus [7], 5.2 in the experiment with Staphylococcus aureus [10] and 0.03 with Staphylococcus aureus [12]. Moreover, the results for the MIC against Staphylococcus aureus [8], with Staphylococcus aureus [9] and in the experiment with Staphylococcus aureus [11] were 0.78 µg/mL (≈ 0.538 µM), 1.56 µg/mL (≈ 1.08 µM) and 1.56 µg/mL (≈ 1.08 µM), respectively.

On to `CC[C@H](C)[C@H](NC(=O)CN)C(=O)NCC(=O)N[C@@H](C)C(=O)N[C@H](C(=O)N[C@@H](CC(C)C)C(=O)N[C@@H](CCCCN)C(=O)N[C@H](C(=O)N[C@@H](CC(C)C)C(=O)N[C@H](C(=O)N[C@H](C(=O)NCC(=O)N[C@@H](CC(C)C)C(=O)N1CCC[C@H]1C(=O)N[C@@H](C)C(=O)N[C@@H](CC(C)C)C(=O)N[C@H](C(=O)N[C@@H](CO)C(=O)N[C@@H](Cc1c[nH]c2ccccc12)C(=O)N[C@H](C(=O)N[C@@H](CCCCN)C(=O)N[C@@H](CCCNC(=N)N)C(=O)N[C@@H](CCCCN)C(=O)N[C@@H](CCCNC(=N)N)C(=O)N[C@@H](CCC(N)=O)C(=O)N[C@@H](CCC(N)=O)C(N)=O)[C@@H](C)CC)[C@@H](C)CC)[C@@H](C)O)[C@@H](C)O)C(C)C)C(C)C` [MELITTIN], for which the MIC against Klebsiella pneumoniae [2] and with Klebsiella pneumoniae [3] was 6.25 µg/mL (≈ 2.2 µM) each time. For the same compound, the Activity in the experiment on Staphylococcus aureus [13] is recorded as greater than 10%; in the experiment on Klebsiella pneumoniae [14], less than 10%. The “inhibition (INH)” value with Klebsiella pneumoniae [15] and in the experiment with Staphylococcus aureus [16] was greater than 90% in each case.
